Source: article PMC5225157 (Biochemistry, 2016)
* marks the point of attachment. Dansyl = CN(C)c1cccc2c(S(=O)(=O)*)cccc12

Tests used:
human CP4H1 [1] = molecular target: T1, human CP4H1 (Homo sapiens, UniProt P13674); experiment: UPLC assay of model peptides and isosteres as substrates; assay type: biochemical
human CP4H1 [2] = molecular target: T1, human CP4H1; experiment: Inhibition of human CP4H1 activity by alkene isosteres; assay type: biochemical; conditions: for inhibition of catalysis by human CP4H: dansyl isostere 100 µM, dansylGPPGOEt 0.50 mM, pH 7.8, 30 °C, mean (± SD) of three independent experiments; for inhibition of catalysis by human CP4H / relative inhibitory potency, cis versus trans Cbz isosteres: α-ketoglutarate 1.00 mM; for relative inhibitory potency, cis versus trans Cbz isosteres: Cbz isostere 1.00 mM, CbzGPPGOEt 1.00 mM as substrate, pH 7.8, three independent experiments
[3] = system: C. reinhardtii P4H-1 (CrP4H-1); experiment: UPLC assay of dansyl peptides as substrates; assay type: biochemical, Chlamydomonas reinhardtii; conditions: for hydroxylation of dansyl isosteres by CrP4H-1: UPLC, data not shown
[4] = system: C. reinhardtii P4H-1 (CrP4H-1); conditions: isostere 100 µM, dansylGPPGOEt 0.50 mM, α-ketoglutarate 1.00 mM, NHis6-CrP4H-1 1.2 µM, 30 °C, 1 h, UPLC; three independent experiments
CP4H = conditions: a CP4H; cited from earlier work

T1 sequence (P13674 18-534): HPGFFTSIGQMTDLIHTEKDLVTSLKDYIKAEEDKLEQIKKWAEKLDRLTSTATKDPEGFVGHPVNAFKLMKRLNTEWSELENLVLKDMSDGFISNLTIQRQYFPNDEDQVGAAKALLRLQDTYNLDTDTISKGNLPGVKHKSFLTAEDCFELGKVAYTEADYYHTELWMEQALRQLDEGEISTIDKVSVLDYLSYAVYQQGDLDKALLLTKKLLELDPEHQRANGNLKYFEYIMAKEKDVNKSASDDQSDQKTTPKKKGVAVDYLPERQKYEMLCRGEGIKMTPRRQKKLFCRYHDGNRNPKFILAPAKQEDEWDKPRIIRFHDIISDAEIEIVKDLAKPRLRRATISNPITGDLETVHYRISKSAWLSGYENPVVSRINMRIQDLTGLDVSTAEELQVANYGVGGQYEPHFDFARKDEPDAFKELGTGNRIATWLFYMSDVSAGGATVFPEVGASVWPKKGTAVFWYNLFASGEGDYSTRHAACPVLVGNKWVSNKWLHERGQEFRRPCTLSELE
T1 sequence (P07237 18-508 partner): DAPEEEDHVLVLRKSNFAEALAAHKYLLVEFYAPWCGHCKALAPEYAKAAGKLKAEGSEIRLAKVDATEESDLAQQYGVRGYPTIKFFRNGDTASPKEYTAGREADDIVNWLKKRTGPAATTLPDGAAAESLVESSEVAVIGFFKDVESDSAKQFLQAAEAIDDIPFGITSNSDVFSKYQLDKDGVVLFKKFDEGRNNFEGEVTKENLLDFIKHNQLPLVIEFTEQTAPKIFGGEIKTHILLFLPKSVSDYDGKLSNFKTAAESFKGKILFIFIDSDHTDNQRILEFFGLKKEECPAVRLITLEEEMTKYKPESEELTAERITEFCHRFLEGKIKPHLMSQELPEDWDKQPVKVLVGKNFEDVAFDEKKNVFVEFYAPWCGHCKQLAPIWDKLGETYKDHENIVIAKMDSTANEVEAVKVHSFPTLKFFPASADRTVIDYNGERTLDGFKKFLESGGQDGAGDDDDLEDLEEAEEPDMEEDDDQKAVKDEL

Compound: dansylGlyProProGlyOEt (Dansyl-GPPG-OEt; SMILES CCOC(=O)CNC(=O)[C@@H]1CCCN1C(=O)[C@@H]1CCCN1C(=O)CNS(=O)(=O)c1cccc2c(N(C)C)cccc12) [Compound 1]
- Ki (human CP4H1 [1]; read-out: Ki (dissociation constant for substrate binding in an inhibitory manner), substrate-inhibition fit (R^2 = 0.98), dansylGPPGOEt 58–1860 µM, α-ketoglutarate 1.00 mM, CP4H1 100 nM, pH 7.8, 30 °C, 15 min, UPLC A289, triplicate): 300 ± 100 µM

Compound: CCOC(=O)CNC(=O)[C@@H]1CCC/C1=C\[C@@H]1CCCN1C(=O)CNS(=O)(=O)c1cccc2c(N(C)C)cccc12 [Compound 3, dansylGPtransPGOEt]
- IC50 (human CP4H1 [2]): 410 ± 30 µM
- inhibition of catalysis by human CP4H (human CP4H1 [2]): inhibitors of catalysis by human CP4H
- hydroxylation of dansyl isosteres by CrP4H-1 [3]: did not observe hydroxylation
- inhibition of CrP4H-1 [4]: served as inhibitors of CrP4H-1

Compound: dansylGlyProProGlyOEt [Compound 1]
- kinetic pattern of turnover (human CP4H1 [1]; dansylGPPGOEt 58–1860 µM, α-ketoglutarate 1.00 mM, pH 7.8, 30 °C): substrate inhibition
- substrate inhibition at saturating α-ketoglutarate (human CP4H1 [1]; saturating concentrations of α-ketoglutarate, human CP4H1): observed even at saturating concentrations of α-ketoglutarate
- kinetic pattern of turnover (CrP4H-1) ([3]; dansylGPPGOEt 212–2120 µM, α-ketoglutarate 1.00 mM): substrate inhibition phenomenon similar to that observed for human CP4H1

Compound: CbzGPcisPGOEt [Compound 6]
- relative inhibitory potency, cis versus trans Cbz isosteres (human CP4H1 [2]): the cis isostere inhibits with greater potency than does the trans isostere

Compound: (ProProGly)10
- mode of substrate inhibition versus α-ketoglutarate (CP4H): competitive with the cosubstrate α-ketoglutarate
- substrate inhibition during turnover of longer collagen mimetic peptide (CP4H): Substrate inhibition had been observed

Compound: CCOC(=O)CNC(=O)[C@@H]1CCC/C1=C/[C@@H]1CCCN1C(=O)CNS(=O)(=O)c1cccc2c(N(C)C)cccc12 [Compound 5, dansylGPcisPGOEt]
- IC50 (human CP4H1 [2]): 75 ± 6 µM
- Ki (human CP4H1 [2]): 56 ± 13 µM
- inhibition of catalysis by human CP4H (human CP4H1 [2]): inhibitors of catalysis by human CP4H
- hydroxylation of dansyl isosteres by CrP4H-1 [3]: did not observe hydroxylation
- inhibition of CrP4H-1 [4]: served as inhibitors of CrP4H-1

Compound: CbzGPtransPGOEt [Compound 4]
- relative inhibitory potency, cis versus trans Cbz isosteres (human CP4H1 [2]): the cis isostere inhibits with greater potency than does the trans isostere
